Assay results taken from PubChem BioAssay (NCI).
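Growth conditions: 96-well plates. Treatment: test compound, 48 hours, 5 concentrations. Analysis: linear interpolation between bracketing concentrations; unreached endpoints set to highest concentration. Definition used: TGI = concentration required for complete inhibition of growth.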

Key:
Experiment in all cases: growth of human tumour cells (NCI), 48 h
NCI-H522 lung = tested on: NCI-H522 lung
CCRF-CEM leukemia = tested on: CCRF-CEM leukemia
HL-60(TB) leukemia = tested on: HL-60(TB) leukemia
SK-OV-3 ovarian = tested on: SK-OV-3 ovarian
OVCAR-3 ovarian = tested on: OVCAR-3 ovarian
UACC-62 melanoma = tested on: UACC-62 melanoma
M14 melanoma = tested on: M14 melanoma
UACC-257 melanoma = tested on: UACC-257 melanoma
NCI/ADR-RES ovarian = tested on: NCI/ADR-RES ovarian
ACHN renal = tested on: ACHN renal

Compound	TGI (NCI-H522 lung)	TGI (CCRF-CEM leukemia)	TGI (HL-60(TB) leukemia)	TGI (SK-OV-3 ovarian)	TGI (OVCAR-3 ovarian)	TGI (UACC-62 melanoma)	TGI (M14 melanoma)	TGI (UACC-257 melanoma)	TGI (NCI/ADR-RES ovarian)	TGI (ACHN renal)
CC[N+](C)(CC)CCN1C(=O)c2ccccc2S1(=O)=O	> 100 µM	> 100 µM	> 100 µM	> 100 µM	> 100 µM	> 100 µM	> 100 µM	> 100 µM	> 100 µM	> 100 µM
N#Cc1c2c(c(N3CCOCC3)n3c1nc1ccccc13)CCCC2	30.1 µM	8.48 µM	35.5 µM	67.7 µM	36.5 µM	55.5 µM	44.4 µM	65.9 µM	43.2 µM	31.3 µM
CCOC(=O)C(O)(NC(C)=O)C(F)(F)F (stereo not given)	> 100 µM	> 100 µM	> 100 µM	> 100 µM	> 100 µM	> 100 µM	> 100 µM	> 100 µM	> 100 µM	> 100 µM
CCOC(=O)C1=C(C)NC(=S)NC1c1cccc(O)c1 (stereo not given)	93.9 µM	> 89.9 µM	77.5 µM	> 100 µM	> 100 µM	> 96.6 µM	60.5 µM	> 100 µM	> 100 µM	> 100 µM
COc1cc(/C=C2/SC(c3ccccc3)N(c3cccc([N+](=O)[O-])c3)C2=O)cc(OC)c1OC (stereo not given)	> 100 µM	> 100 µM	> 100 µM	> 100 µM	> 100 µM	> 100 µM	> 100 µM	> 100 µM	> 100 µM	> 100 µM
CCOC(=O)c1sc2c(c1OC(=O)c1ccccc1)c(=O)n(-c1ccccc1)c(=S)n2-c1ccccc1	56.3 µM	> 100 µM	> 100 µM	> 100 µM	95.6 µM	52.3 µM	45.2 µM	> 100 µM	51 µM	> 100 µM
O=C1OS2(OCc3cccc4cccc2c34)c2ccccc21 (stereo not given)	> 100 µM	> 100 µM	> 100 µM	> 100 µM	> 100 µM	> 100 µM	> 100 µM	> 100 µM	> 100 µM	> 100 µM
CCOP(=O)(OCC)C(Nc1ccc(F)cc1)c1cccc([N+](=O)[O-])c1 (stereo not given)	> 100 µM	> 100 µM	> 100 µM	> 100 µM	> 100 µM	> 100 µM	> 100 µM	> 100 µM	> 100 µM	> 100 µM
O=C1C=CC(=O)c2ncccc21	3.44 µM	3.29 µM	2.02 µM	37.2 µM	4.13 µM	9.3 µM	13.1 µM	11.2 µM	36.1 µM	7.98 µM
CC1(C)[C@@H]2C[C@H]1c1cnc(-c3ccccn3)cc1C2[C@@H]1c2cc(-c3ccccn3)ncc2[C@@H]2C[C@H]1C2(C)C (stereo not given in full)	> 100 µM	> 100 µM	> 100 µM	> 100 µM	> 100 µM	> 100 µM	> 100 µM	> 100 µM	> 100 µM	> 100 µM
CSc1ncc2c(n1)-c1ccccc1OC2N1CCCC1 (stereo not given)	> 100 µM	> 100 µM	> 100 µM	> 100 µM	> 100 µM	> 100 µM	> 100 µM	> 100 µM	> 100 µM	> 100 µM
CCN(CC)CCCNc1ccc2nnn3c4ccc(O)cc4c(=O)c1c23	24.3 µM	39.8 µM	33.2 µM	22.1 µM	25.2 µM	30.9 µM	23.6 µM	32.6 µM	22.9 µM	17.3 µM
CSc1nncc(-c2cc3c(c(SC)n2)CCC3)n1	> 100 µM	> 100 µM	> 100 µM	> 100 µM	> 100 µM	> 100 µM	> 100 µM	> 100 µM	> 100 µM	> 100 µM
CCCCN(c1ccccc1)c1ncnc2c1cnn2C	53.6 µM	49.6 µM	47.6 µM	> 100 µM	> 100 µM	> 100 µM	> 100 µM	95.8 µM	72.7 µM	> 100 µM
